Reference: patent US20240293420A1, “PHARMACEUTICAL COMPOSITION, PREPARATION, AND PREPARATION METHOD THEREFOR AND USE THEREOF” (WUHAN LL SCIENCE AND TECHNOLOGY DEVELOPMENT CO., LTD., priority 2021, published 2024)
“Also recorded” adds a separate entry of the source.

Assays:
[1] = phase II clinical trial; cited from earlier work
[2] = Dynamic vapor sorption (DVS) test; format: physicochemical; conditions: for DVS (wt %, 80% RH) / DVS (wt %, 90% RH): 25° C.
[3] = Pharmacokinetic experiments in Beagles; format: in vivo; conditions: Beagle, male, PO, 10 mg/kg, plasma
Description: The present disclosure preferred crystal forms I, III, and V of the compound in the above examples for pharmacokinetic experiments in Beagles, and the relevant experiments are as follows:
Animal: 9 Beagles, male, divided into three groups with 3 in each group, weight ranging from 10 to 13 kg (source & certificate number: Beijing Marshall Biotechnology Co., Ltd., No. 1103182011000161)
Administration mode and dosage: PO: 10 mg/kg
Preparation: 0.5% CMC-Na was used as the solvent, and 400 mg of each of the three different crystal forms of compound A were weighed and added to the corresponding 79 mL of solvent, respectively. The mixture was subjected to ultrasonication for 20 minutes, added with a stirrer, and mixed thoroughly for 3 hours (the storage period from compound preparation to animal administration at room temperature was less than 6 hours). After the drug solution became a homogeneous and fine suspension, which was observed by the naked eye, the solvent was gradually added until the specified volume reached the target concentration. The preparation was stirred for 10 minutes at room temperature before administration, and stirred continuously during administration.
Time points for sampling: the time points for blood sampling in the PO group were 0.167, 0.5, 1, 2, 4, 6, 8, and 24 hours.
Animals in the PO group were fasted overnight except for free access to water before administration, and resumed food supply 4 hours after administration.
After Beagles in the […] were administered, blood was collected from Beagles by jugular vein puncture according to the time points for sampling. About 1.0 mL of blood was collected at each time point and transferred to an anticoagulant EP tube (containing 10 μL of EDTA-K2, 375 mg/mL). The tube was gently inverted three times, stored in an ice box (no more than 30 minutes), and centrifuged at 3200 g for 10 minutes at 4° C. The plasma was transferred to an ultra-low temperature refrigerator and stored until detection.
Sample pretreatment process: 40 μL of sample was taken, and 160 μL of acetonitrile solution containing 0.1% FA and 200 ng/mL of mixed standard solution was added to precipitate the protein. The mixture was vortexed and mixed well, and the sample was centrifuged in a 4° C. centrifuge at 13000 pm for 10 minutes. 100 μL of the supernatant was transferred to another 96 deep well plate, then 100 μL of methanol:water (1:3, v:v) solution containing 0.1% FA was added thereto, and the mixture was shaken and mixed for 10 minutes.
• Ion source: ion electrospray (ESI) • Ionization mode: positive ion mode (Positive) • Detection mode (mode): multiple reaction monitoring (MRM) • Ion spray voltage: 5500 V • Ion spray temperature (turbo ion spray temp): 550° C. • Curtain gas type: nitrogen setting: 35 • Collision cell gas type (CAD gas type): nitrogen setting: medium • Nebulizing gas type (gas 1): nitrogen setting: 55.00 • Auxiliary gas type (gas 2): nitrogen setting: 55.00
• Chromatographic column: poroshell 120 EC-C18 (4.6×50 mm, 2.7 μm) • Mobile phase A: 0.1% formic acid aqueous solution • Mobile phase B: a solution of 0.1% formic acid in methanol • Auto sampler wash solution (rinse port wash solution): 50% methanol • Column temperature: 40° C. • Flow rate: 0.55 mL/min • Auto sampler temperature (sample tray temp): 10° C. • Injection volume: 3 μL • Lift of presser foot (needle stroke): 49 mm • Auto sampler rinse setting (rinse pump setting): rinse port only • Auto sampler rinse mode (rinse mode): before aspiration • Auto sampler rinse volume for needle (rinse volume): 500 μL • Dip time when rinsing the injection needle (rinse dip time): 2 seconds
The data would be analyzed using WinNonlin (version 5.2.1 Pharsight, Mountain View, CA) through a non-compartmental model to obtain PK parameters (selecting Cmax, Tmax, AUClast, T1/2, and other parameters according to different routes of administration).

[4] = Physical and chemical stability of crystal forms at 60° C. (closed) and 40° C./75% RH (open); format: physicochemical
Description: The physical and chemical stability of crystal forms I, III, and V at 60° C. (closed) and 40° C./75% RH (open) for 7 days were investigated respectively.
(closed) and 40° C./75% RH (open) for 3 months were investigated.

[5] = Solubility tests in biological media of SGF, FaSSIF and FeSSIF; format: physicochemical
Description: The instrument used for liquid chromatography analysis was Agilent HPLC 1260 series, and the analytical method is shown in the table below.
The results of solubility tests of crystal forms I, III, and V in biological media of SGF, FaSSIF, and FeSSF are as shown in Table E and FIG. 43. There was little difference in the solubility of the above three crystal forms in different biological media, and the solubility in SGF was higher than 5 mg/mL.

[6] = Crystal form transformation under humidity / drying (XRPD); format: physicochemical; conditions: humidity or drying as stated in the value
From the text: Crystal form I can be obtained by the preparation method in Example 3. […] (FIG. 29). Combined with the DVS test results (FIG. 30), it can be seen that the mutual transformation between crystal forms I and IV is reversible.
Crystal form IV is a hygroscopic product of crystal form I under high humidity environment, and can be obtained by slurrying crystal form I or crystal form V in a mixed solvent of water/acetone with a water content of 50% to 95%.
Crystal form VI was obtained by slurrying crystal form I or crystal form V at 60° C. in a mixed solvent of water/acetone with a water content of 10% (volume ratio) at 60° C.
Crystal form VIII is a hydrate, but the hydrate is unstable.

SMILES | DVS (wt %, 80% RH) ([2]; 80% RH) | DVS (wt %, 90% RH) [2] | AUClast [3] | Cmax [3] | T1/2 [3] | Tmax [3] | Purity - 7 days (peak area %) ([4]; 40° C./75% RH (open), 7 days) | Purity - 7 days (peak area %) ([4]; 60° C. (closed), 7 days) | Initial purity (peak area %) [4] | XRPD of remaining solid ([5]; FaSSIF, 0.5 h) | pH ([5]; FaSSIF, 0.5 h) | pH ([5]; FaSSIF, 2 h) | pH ([5]; FaSSIF, 24 h) | XRPD of remaining solid ([5]; FeSSIF, 0.5 h) | pH ([5]; FeSSIF, 0.5 h) | pH ([5]; FeSSIF, 2 h) | pH ([5]; FeSSIF, 24 h) | pH ([5]; SGF, 0.5 h) | pH ([5]; SGF, 2 h) | crystal form transformation [6] | also measured
COc1cc(C(C)C)c(Oc2cnc(N)nc2N)cc1S(N)(=O)=O [AF-219] |  |  |  |  |  |  |  |  |  |  |  |  |  |  |  |  |  |  |  |  | dysgeusia [1]: serious dysgeusia problem; efficacy on refractory cough [1]: good efficacy
COC(=O)N1CCO[C@@H](Cc2c(-c3c(F)cc(S(N)(=O)=O)cc3F)nc3cc(Cl)ccn23)C1 [Crystal form V, methyl (S)-2-((7-chloro-2-(2,6-difluoro-4-sulfamoylphenyl)imidazo[1,2-a]pyridin-3-yl)methyl)morpholine-4-carboxylate] | 0.7 wt % | 0.9 wt % | 2637 ± 1750 ng·h/mL | 170 ± 99.4 ng/mL | 44.4 ± 28.9 h | 4.67 ± 0.67 h | 99.28 peak area % | 99.30 peak area % | 99.29 peak area % | Unchanged | 6.4 | 6.4 | 6.4 | Unchanged | 5.0 | 5.0 | 5.1 | 1.2 | 1.1 |  | XRPD of remaining solid ([5]; FaSSIF, 2 h): Unchanged; XRPD of remaining solid ([5]; FaSSIF, 24 h): Unchanged; XRPD of remaining solid ([5]; FeSSIF, 2 h): Unchanged; XRPD of remaining solid ([5]; FeSSIF, 24 h): Unchanged; pH ([5]; SGF, 24 h): 1.2; solubility at 2 h ([5]; pH 1.1, simulated gastric fluid, thermodynamic from solid, SGF, 2 h, visual observation): > 5000 µg/mL
COC(=O)N1CCO[C@@H](Cc2c(-c3c(F)cc(S(N)(=O)=O)cc3F)nc3cc(Cl)ccn23)C1 [Crystal form IV, methyl (S)-2-((7-chloro-2-(2,6-difluoro-4-sulfamoylphenyl)imidazo[1,2-a]pyridin-3-yl)methyl)morpholine-4-carboxylate] |  |  |  |  |  |  |  |  |  |  |  |  |  |  |  |  |  |  |  | transformed into crystal form I as an anhydrous crystal form after vacuum drying and dehydration | 
COC(=O)N1CCO[C@@H](Cc2c(-c3c(F)cc(S(N)(=O)=O)cc3F)nc3cc(Cl)ccn23)C1 [Crystal form I, methyl (S)-2-((7-chloro-2-(2,6-difluoro-4-sulfamoylphenyl)imidazo[1,2-a]pyridin-3-yl)methyl)morpholine-4-carboxylate] | 6.8 wt % | 6.9 wt % | 7926 ± 6235 ng·h/mL | 991 ± 800 ng/mL | 11.9 ± 3.65 h | 2.00 ± 0.00 h | 99.38 peak area % | 99.37 peak area % | 99.38 peak area % | transformed into crystal form IV as a hydrate | 6.4 | 6.4 | 6.4 | transformed into crystal form IV as a hydrate | 5.0 | 5.1 | 5.1 | 1.2 | 1.3 | absorbed moisture under high humidity environment and was transformed into crystal form IV as a hydrate; also recorded: easy to transform into crystal form IV when RH >40% | XRPD before and after the DVS test [2]: remained unchanged; hygroscopicity (DVS) ([2]; 80% RH): 6.8%; XRPD ([4]; 40° C./75% RH (open), 7 days): transformed into crystal form IV as a hydrate; pH ([5]; SGF, 24 h): 1.2
COC(=O)N1CCO[C@@H](Cc2c(-c3c(F)cc(S(N)(=O)=O)cc3F)nc3cc(Cl)ccn23)C1 [Crystal form VIII, methyl (S)-2-((7-chloro-2-(2,6-difluoro-4-sulfamoylphenyl)imidazo[1,2-a]pyridin-3-yl)methyl)morpholine-4-carboxylate] |  |  |  |  |  |  |  |  |  |  |  |  |  |  |  |  |  |  |  | transformed into crystal form I | 
COC(=O)N1CCO[C@@H](Cc2c(-c3c(F)cc(S(N)(=O)=O)cc3F)nc3cc(Cl)ccn23)C1 [Crystal form VI, methyl (S)-2-((7-chloro-2-(2,6-difluoro-4-sulfamoylphenyl)imidazo[1,2-a]pyridin-3-yl)methyl)morpholine-4-carboxylate] |  |  |  |  |  |  |  |  |  |  |  |  |  |  |  |  |  |  |  | transformed into crystal form I after being placed under ambient humidity (35% RH) for a few minutes | 
